{"source": "patent US20230172923A1", "about": "“METHODS OF TREATING CYTOKINE-RELATED ADVERSE EVENTS” (BRISTOL-MYERS SQUIBB COMPANY, priority 2020, published 2023)", "type_in_all_cases": "cell-based, human", "key": {"IL-6 [1]": {"tested_on": "IL-6", "test": "LPS-induced IL-6 secretion from monocytes with nigericin (MSD)", "conditions": "overnight 1 nM, 10 nM or 100 nM Compound 1; LPS 4 hours, then 5 µg/ml nigericin 1 hour", "procedure": "Monocytes from healthy volunteers were seeded at a concentration of 1×10^6 cells/ml and treated with the indicated concentration of Compound 1 overnight. The next morning, the monocytes were incubated with the indicated concentration of LPS for 4 hours, and then stimulation with 5 ug/ml of nigericin for 1 hour, before IL-6 levels in the supernatant were assessed using an MSD assay.\nMonocytes from two healthy human donors were isolated as in Example 1. Here isolated monocytes (1×10^6 cells/ml) were treated with various concentrations of Compound 1 (1 nM, 10 nM, or 100 nM), or control DMSO (0.001%), overnight (~17 hours) before stimulation with various concentrations of LPS.\nAfter 4 hours, 5 µg/ml of nigericin was added to activate the inflammasome for 1 hour, supernatants were harvested, and MSD analysis was performed to quantify secreted IL-6."}, "IL-2": {"tested_on": "IL-2", "test": "CC-93269-induced IL-2 secretion, co-culture of PBMCs and K562-BCMA cells (MSD)", "conditions": "Compound 1 pre-treatment; 24 hours", "procedure": "(§1) Co-cultures of PBMCs, target K562-BCMA cells and CC-93269 were prepared as for FIG. 9. At 6-, 24- and 48-hours post-incubation, the cell culture media was collected and levels of TNF-alpha (FIG. 12A) and IL-2 (FIG. 12B) in the supernatant were assessed using an MSD assay. ULOQ = Upper limit of quantification.\n(§2) Fresh PBMCs were isolated from the blood (buffy coat) of healthy human volunteers by Ficoll based cell separation. The percentage of CD3+ T-cells (total) in the PBMCs was quantified by flow cytometry. The isolated PBMCs were seeded in 12-well plates at a concentration of 1.5×10^6 cells/ml and treated with 1 nM Compound 1 (CC-92480), 1000 nM lenalidomide, 100 nM pomalidomide, 10 nM iberdomide, or control DMSO overnight (~17 hours).\n(§3) After overnight incubation, target K562-BCMA cells (overexpress surface BCMA at a very high level) or control K562-MCB cells (no BCMA expression) were added to the wells at a ratio of 5:1, T-cells to target cells. K562-BCMA and K562-MCB are an isogenic pair that are derived from a chronic myelogenous leukemia (CML,) cell line. CC-93269 was added to the co-culture at various concentrations and incubated. CC-93269 is an anti-BCMA anti-CD3 bispecific T cell-engaging antibody and is also referred to herein as 42-TCBcv."}, "IL1-beta": {"tested_on": "IL1-beta", "test": "CC-93269-induced IL1-beta secretion, co-culture of PBMCs and K562-BCMA cells (MSD)", "procedure": "Co-cultures of PBMCs, target K562-BCMA cells and CC-93269 were prepared as for FIG. 9. At 6-, 24- and 48-hours post-incubation, the cell culture media was collected and levels of IL1-beta in the supernatant were assessed using an MSD assay (FIG. 13A). […] The circles indicate independent donors and the bars indicate median values; not all donors are shown because a data cut-off for the bottom ~10% of IL1-beta concentrations, below 100 pg/ml, was used to eliminate small changes that could skew the result and to increase confidence in results.\nFresh PBMCs were isolated from the blood (buffy coat) of healthy human volunteers by Ficoll based cell separation. The percentage of CD3+ T-cells (total) in the PBMCs was quantified by flow cytometry. The isolated PBMCs were seeded in 12 well plates at a concentration of 1.5×10^6 cells/ml and treated with 1 nM Compound 1 (CC-92480) or control DMSO overnight (~17 hours). After overnight incubation, target K562-BCMA cells were added to the wells at a ratio of 5:1, T-cells to target cells, followed by incubation with CC-93269 at various concentrations. […]\nAt 6, 24 and 48 hours post-incubation, the cell culture media was collected from all samples, spun down at 300 g for 5 minutes to remove cells and the supernatant was subjected to cytokine analysis to quantify secreted levels of IL1-beta using an MSD assay."}, "TNF-alpha": {"tested_on": "TNF-alpha", "test": "CC-93269-induced TNF-alpha secretion, co-culture of PBMCs and K562-BCMA cells (MSD)", "conditions": "Compound 1 pre-treatment; 24 hours", "procedure": "as §1, §2, §3"}, "IL-6 [2]": {"tested_on": "IL-6", "test": "CC-93269-induced IL-6 secretion, co-culture of PBMCs and H929 multiple myeloma cells (MSD)", "conditions": "1 nM Compound 1 pre-treatment overnight, washed out; two donors", "procedure": "Fresh PBMCs were isolated from healthy volunteers, the percentage of CD3+ T-cells (total) was quantified by flow cytometry, and the PBMCs were treated with 1 nM Compound 1 (CC-92480) or control DMSO overnight. The next morning, target H929 cells were added to the wells at a ratio of 5:1, T-cells to target cells, followed by addition of CC-93269 at indicated concentrations. At 6-, 24- and 48-hours post-incubation, the cell culture was collected and levels of IL-6 in the supernatant were assessed using an MSD assay.\nFresh PBMCs were isolated from the blood (buffy coat) of human volunteers by Ficoll based cell separation. The percentage of CD3+ T-cells (total) in the PBMCs was quantified by flow cytometry. The isolated PBMCs were seeded in 12 well plates at a concentration of 1.5×10^6 cells/ml and treated with 1 nM Compound 1 (CC-92480) or control DMSO overnight (~17 hours). After overnight incubation, the cells were washed to remove CC-92480, before target H929 cells were added to the wells at a ratio of 5:1, T-cells to target cells. […]\nThe co-culture was then incubated with CC-93269 at various concentrations. At 6, 24 and 48 hours post-incubation, the cell culture media was collected from all samples, spun down at 300 g for 5 minutes to remove cells and the supernatant was subjected to cytokine analysis to quantify secreted levels of IL-6 using an MSD assay. […]"}}, "note": "“Also recorded” adds a separate entry of the source.", "data": [{"compound": "N#Cc1ccc(N2CCN(Cc3ccc(COc4cccc5c4CN(C4CCC(=O)NC4=O)C5=O)cc3)CC2)c(F)c1", "note": "(stereo not drawn) [Compound 1, 4-(4-(4-(((2-(2,6-dioxopiperidin-3-yl)-1-oxoisoindolin-4-yl)oxy)methyl)benzyl)piperazin-l-yl)-3-fluorobenzonitrile]", "values": [{"measurement": "LPS-induced IL-6 secretion from monocytes", "setting": "IL-6 [1]", "value": "diminished"}, {"measurement": "CC-93269-induced IL-2 secretion from PBMCs with K562 target cells", "setting": "IL-2", "value": "potentiates"}, {"measurement": "secretion of IL1-beta associated with CC-93269 activity, PBMCs + K562-BCMA", "setting": "IL1-beta; 1 nM Compound 1 pre-treatment overnight", "value": "diminished/attenuated; also recorded: suppressed"}, {"measurement": "median reduction in IL1-beta levels relative to DMSO control", "setting": "IL1-beta; Compound 1 pre-treatment, 10 ng/ml CC-93269, 24 hours, PBMCs from 15 healthy donors", "value": "ten-fold"}, {"measurement": "CC-93269-induced TNF-alpha secretion from PBMCs with K562 target cells", "setting": "TNF-alpha", "value": "potentiates"}, {"measurement": "secretion of IL-6 associated with CC-93269 activity, PBMCs + multiple myeloma cells (H929)", "setting": "IL-6 [2]", "value": "diminished/attenuated"}]}]}
